The IC50 is the point on the concentration scale where inhibition reaches its midpoint. A low value points to greater potency in that assay.

Experiment [1] concerns MDA231 breast tumor cells. The experiment can be described thus: Tumor cell growth assay, combination with MEK inhibitor, MDA231. The experiment is classed as cell-based, human. As for the experimental part:
(§1) Human tumor cell are all obtained from ATCC, and are cultured using standard cell culture methods. Cells are plated in 96-well culture plates at 1000 to 3000 cells per well. One day following plating, cells are treated with various doses of PI3K inhibitor Compound 4 or Compound 5 alone or with a low constant dose of MEK inhibitor 2-(2-chloro-4-iodoanilino)-N-(cycloprorylmethoxy-3,4-difluobenzamide) (1 μg/ml) or UO126 (5 μg/ml). UO126 is also known as 1,4-diamino-2,3-dicyano-1,4-bis[2-aminophenylthio]butadiene. In some experiments, cells are treated alone with various doses of the MEK inhibitor (2-(2-chloro-4-iodoanilino)-N-(cycloprorylmethoxy-3,4-difluobenzamide)), or HER2/neu inhibitor HKI-272, or mTOR inhibitor CCI-779, or with a low constant dose of Compound 4 (0.1 μg/ml). […] Three days after drug treatment, viable cell densities are determined by metabolic conversion (by viable cells) of the dye MTS, an established cell proliferation assay. […] The MTS assay results are read in a 96-well plate reader by measuring absorbance at 490 nm. The effect of each treatment is calculated as percent of control growth relative to the vehicle DMSO-treated cells grown in the same culture plate. […]

Experiment [2] relates to HER2/Neu-overexpressing MDA361-DYT2 breast tumor cells. Description: Tumor cell growth assay, HKI-272 and combination, MDA361-DYT2. It is filed as cell-based, human. To be noted: compound 4 at 0.1 μg/ml; MDA361-DYT2. The procedure:
as §1

Experiment [3] deals with non-small cell lung cancer (NSCLC) cell lines. The experiment can be described thus: Tumor cell growth assay, combination with MEK inhibitor, NSCLC. The experiment is classed as cell-based, human. As for the experimental part:
as §1

Experiment [4] relates to DU145 (human prostate carcinoma/lymphocytic leukemia). Description: Cell proliferation (MTS) assay, DU145. The experiment is classed as cell-based. The following applies: three days treatment. In short, it runs like this:
(§2)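 Cells plated at about 3000 per well in RPMI-1640/10% FBS were dosed with compound one day later. Viability was read by MTS conversion (absorbance 490 nm, 1–2 h) three days after treatment began. Effect is expressed as percent of vehicle-treated growth on the same plate.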

The test system of a further experiment is T1, PI3K.
T1 construct: PI3K FP IC50
Description: Fluorescence polarization assay for PI3K. It is filed as biochemical. In short, it runs like this: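 PI3K was preincubated with compound at 1% DMSO final, then reacted with PIP2/ATP substrate for 30-60 min. The reaction was stopped with a detector mix giving 10 nM red probe and 70 nM GST-GRP. Fluorescence polarization (mP, Tamra filters) was read 30-90 min later and IC50 determined.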
A general note: In fluorescence polarisation assays a small probe gives low polarisation when free and higher when bound to something large.

Experiment [5] has as its system LNCaP (human prostate carcinoma). Description: Cell proliferation (MTS) assay, LNCaP. It is filed as cell-based. To be noted: three days treatment. In short, it runs like this:
as §2

Experiment [6] has as its system MDA468 (human breast cancer cell). The experiment can be described thus: Cell proliferation (MTS) assay, MDA468. It is filed as cell-based. The following applies: three days treatment. A digest of the protocol:
as §2

Experiment [7] relates to MDA435 (human breast adenocarcinoma). Description: Cell proliferation (MTS) assay, MDA435. The experiment is classed as cell-based. To be noted: three days treatment. A digest of the protocol: as §2

As to `COC[C@H]1OC(=O)/C(=C/N(CCO)C(C)(C)C)C2=C(O)C(=O)C3=C([C@H](OC(C)=O)C[C@@]4(C)C3CC[C@@H]4O)[C@]21C` (stereo partly drawn) [Compound 4, (1E,4S,4aR,5R,6aS,7S)-1-{[tert-butyl(2-hydroxyethyl)amino]methylene}-7,11-dihydroxy-4-(methoxymethyl)-4a,6a-dimethyl-2,10-dioxo-1,2,4,4a,5,6,6a,7,8,9,9a,10-dodecahydroindeno[4,5-h]isochromen-5-yl acetate], the “growth inhibition in combination with MEK inhibitor 2-(2-chloro-4-iodoanilino)-N-(cycloprorylmethoxy-3,4-difluobenzamide)” value in experiment [1] and in experiment [3] was “synergistic growth inhibition” each time. Besides, in experiment [2], the “growth inhibition in combination with HER2/neu inhibitor HKI-272” value is listed as “synergistically inhibited growth”. Moreover, the figures for the “DU145 IC50” value in experiment [4] (Table 1) and in experiment [4] (Table 2) were 1.5 µg/mL and 1 µg/mL, respectively. In addition, the “PI3K FP IC50” value with PI3K (Table 1) is 0.596 µg/mL. Further, the IC50 in the experiment on PI3K (Table 2) came out at 1 µM. For the same molecule, the “LNCaP IC50” value in experiment [5] (Table 1) was determined as 0.09 µg/mL; in experiment [5] (Table 2), 0.05 µg/mL. Besides, the entries for the “MDA468 IC50” value in experiment [6] (Table 1) and in experiment [6] (Table 2) were 0.3 µg/mL and 0.51 µg/mL, respectively. Further, the “MDA435 IC50” value was 6 µg/mL in experiment [7] (Table 1) and 3.5 µg/mL in experiment [7] (Table 2).

Values taken from patent US7666901B2, “Analogs of 17-hydroxywortmannin as PI3K inhibitors” (Wyeth, priority 2004, dated 2010).
